{"source": "patent US8287921B1", "about": "“Formulations against cutaneous leishmaniasis” (priority 2011, dated 2012)", "key": {"Leishmania promastigotes": {"test_system": "Leishmania promastigotes", "experiment": "In vitro leishmanicidal assay", "format": "cell-based", "conditions": "72 hrs, 22-25° C.", "procedure": "Leishmania promastigotes were grown in bulk early in modified NNN biphasic medium using normal physiological saline. Leishmania parasite promastigotes were cultured with RPMI 1640 medium (Sigma, St. Louis, USA) supplemented with 10% heat inactivated foetal Calf serum (FCS) (PAA Laboratories GmbH, Austria) Parasites at log phase were centrifuged at 2000 rpm for 10 minutes, and washed three times with saline at same speed and time. Parasites were diluted with fresh culture medium to a final density of 1×10^6 cells/ml.\nIn a 96-well micro titer plate, medium was added in different wells, 20 μl of the experimental compound was added in medium and serially diluted. 100 μl of parasite culture was added in all wells. Two rows were left for negative and positive control. Negative controls receives medium while the positive control contains varying concentrations of standard antileishmanial compound e.g., Amphotericin B (MP Biomedical Inc.), Pantamidine (ICN Biomedical Inc.). The plate was incubated between 22-25° C. for 72 hrs. […] All assays were run in duplicate (5)."}, "[1]": {"test_system": "3T3 cell lines (Normal Fibroblast cell)", "experiment": "Cytotoxic activity against 3T3 cell lines (MTT assay)", "format": "cell-based, Mouse", "conditions": "72 h, 1-100 μg/mL", "protocol": "Cytotoxic activity of compounds was evaluated in 96-well flat-bottomed micro plates by using the standard MTT (3-[4,5-dimethylthiazole-2-yl]-2,5-diphenyl-tetrazolium bromide) colorimetric assay1. For this purpose, 3T3 (Mouse fibroblast) were cultured in Dulbecco's Modified Eagle's Medium, supplemented with 5% of foetal bovine serum (FBS), 100 IU/mL of penicillin and 100 μg/mL of streptomycin in 25 cm^3 flask, and kept in 5% CO2 incubator at 37° C. Exponentially growing cells were harvested, counted with haemocytometer and diluted with a particular medium. Cell culture with the concentration of 1×10^5 cells/mL was prepared and introduced (100 μL/well) into 96-well plates. After overnight incubation, medium was removed and 200 μL of fresh medium was added with different concentrations of compounds (1-100 μg/mL). After 72 h, 50 μL MTT (2 mg/mL) was added to each well and incubated further for 4 hrs. Subsequently, 100 μL of DMSO was added to each well. The extent of MTT reduction to formazan within cells was calculated by measuring the absorbance at 570 nm, using a microplate ELISA reader (Spectra Max plus, Molecular Devices, CA, USA). The cytotoxicity was recorded as concentration causing 50% growth inhibition for 3T3 cells."}}}
{"smiles": "C[C@@H]1[C@H](O)[C@@H](C)/C=C/C=C/C=C/C=C/C=C/C=C/C=C/[C@H](O[C@@H]2O[C@H](C)[C@@H](O)[C@H](N)[C@@H]2O)C[C@@H]2O[C@](O)(C[C@@H](O)C[C@@H](O)[C@H](O)CC[C@@H](O)C[C@@H](O)CC(=O)O[C@H]1C)C[C@H](O)[C@H]2C(=O)O", "note": "[Amphotericin B]", "values": [{"measurement": "In vitro Leishmanicidal activity IC50 ± S.D", "setting": "Leishmania promastigotes", "result": "0.12 ± 0.10", "unit": "µg/mL"}]}
{"smiles": "C[C@@H]1C[C@@H]([C@H](O)CC2CC(=O)NC(=O)C2)C(=O)[C@@H](C)C1", "note": "[Cyclohexamide]", "values": [{"measurement": "IC50 ± S.D. 3T3 cell lines", "setting": "[1]", "result": "0.26 ± 0.04", "unit": "µg/mL"}]}
{"smiles": "N=C(N)c1ccc(OCCCCCOc2ccc(C(=N)N)cc2)cc1", "note": "[Pentamidine]", "values": [{"measurement": "IC50", "setting": "Leishmania promastigotes; Leishmania, read-out: In vitro Leishmanicidal activity IC50 ± S.D", "result": "5.13 ± 0.02", "unit": "µg/mL"}]}
